We go through seven compounds from the NIST ThermoML archive (doi:10.1016/j.fluid.2018.09.023).

The mass density is mass per unit of volume.

Numbers after ± are expanded uncertainties.

The conditions of data set [1]: 298.15 K; 101.33 kPa; Liquid; Vibrating tube method.
The nature of data set [2]: Solid-liquid equilibrium temperature. As to conditions: 101 kPa, visual observation.

In the case of `CCOC(=O)OCC` [diethyl carbonate], in data set [1], the mass density was determined as 969.18 ± 0.07 kg/m3.
For the compound `COC(=O)OC` [dimethyl carbonate], in data set [2], the Solid-liquid equilibrium temperature turned out to be 278.11 ± 4 K. In addition, in data set [1], the mass density is on record as 1063.26 ± 0.08 kg/m3.
Take `O=C(Oc1ccccc1)Oc1ccccc1` [diphenyl carbonate]: the Solid-liquid equilibrium temperature in data set [2] stood at 352.7 ± 4 K.
`CCCOC(=O)OCCC` [dipropyl carbonate]: the mass density in data set [1] amounted to 938.35 ± 0.13 kg/m3.
With `CCO` [ethanol], the mass density in data set [1] is 785.02 ± 0.13 kg/m3.
Still for that read-out and setting: as for `CCCO` [propan-1-ol], the figure is 800.06 ± 0.12 kg/m3.
Still for that read-out and setting: next, `CC(C)O` [propan-2-ol]: 780.79 ± 0.13 kg/m3.
